# Laboratory results from patent US9617237B2, “Partially saturated tricyclic compounds and methods of making and using same” (Zafgen, Inc., priority 2011, dated 2017).
# Biological target: T1, recombinant human MetAP2 (Homo sapiens, UniProt P50579)
# T1 construct: made in house; host or cells: Sf9 insect cells
# Assay: Inhibition of recombinant human MetAP2 activity (fluorescence, MAS substrate, amino acid oxidase/Amplex red)
# Type: biochemical
# Settings: manganese enzyme; 0.75 mM Methionine-Alanine-Serine (MAS) substrate; 30 minutes at 25° C.; pH 7.5; 1% DMSO
# Protocol: Compounds are tested for their capacity to inhibit recombinant human MetAP2 activity using the following assay.
# Human recombinant MetAP2 expressed in Sf9 cells followed by affinity purification and EDTA treatment to remove endogenous active site cation was dialysed against MnCl2 to produce the manganese enzyme used in the assay. The assay was carried out for 30 minutes at 25° C. in 50 mM HEPES buffer containing 100 mM NaCl, pH 7.5 the presence of 0.75 mM Methionine-Alanine-Serine (MAS) substrate and 50 μg/ml amino acid oxidase using a dilution of purified MetAP2 giving >3-fold signal: noise. Cleavage of the substrate by MetAP2 and oxidation of free methionine by amino acid oxidase was detected and quantified using fluorescence generated by Amplex red (10-acetyl-3,7-dihydroxyphenoxazine) in combination with horseradish peroxidase which detects H2O2 released during the oxidation step. The fluorescent signal was detected using a multiwell fluorimeter. Compounds were diluted in DMSO prior to addition to assay buffer, the final DMSO concentration in the assay being 1%.
# IC50 values are calculated using the XLfit software package (version 2.0.5).
# T1 sequence (P50579 whole entry): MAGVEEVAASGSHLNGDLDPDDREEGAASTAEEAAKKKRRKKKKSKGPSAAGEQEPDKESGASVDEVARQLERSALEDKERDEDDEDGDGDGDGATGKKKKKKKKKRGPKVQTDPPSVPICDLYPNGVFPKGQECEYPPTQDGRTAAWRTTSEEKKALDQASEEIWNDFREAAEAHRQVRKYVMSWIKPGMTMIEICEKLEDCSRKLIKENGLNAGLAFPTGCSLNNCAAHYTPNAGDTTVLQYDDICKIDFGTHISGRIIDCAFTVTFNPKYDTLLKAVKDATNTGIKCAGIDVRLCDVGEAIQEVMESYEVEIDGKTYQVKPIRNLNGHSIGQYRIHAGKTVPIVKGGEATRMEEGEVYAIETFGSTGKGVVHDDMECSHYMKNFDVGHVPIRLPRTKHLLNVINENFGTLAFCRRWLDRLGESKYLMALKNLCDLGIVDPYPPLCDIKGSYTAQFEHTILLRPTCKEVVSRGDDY
row,Structure (SMILES),IC50 [µM]
1,"CCN1CCC[C@@H]1C(=O)NCc1cc(F)ccc1S(=O)(=O)Nc1ccc2c(c1C(=O)O)OC[C@@H]1C[C@H]21 (mixture of isomers) [(1aRS,7bSR)-5-(2-{[((R)-1-Ethylpyrrolidine-2-yl)carbonyl-amino]methyl}-4-fluorobenzenesulfonylamino)-1,1a,2,7b-tetrahydrocyclopropa[c]chromene-4-carboxylic acid]",0.05 to 0.5
2,"CCN1CC[C@@H](C(=O)NCc2cc(F)ccc2S(=O)(=O)Nc2ccc3c(c2C(=O)O)OC[C@@H]2C[C@H]32)C1 (mixture of isomers) [(1aRS,7bSR)-5-(2-{[((R)-1-Ethylpyrrolidine-3-carbonyl)amino]-methyl}-4-fluoro-benzenesulfonylamino)-1,1a,2,7b-tetrahydro-cyclopropa[c]chromene-4-carboxylic acid]",0.05 to 0.5
3,"CCN1CC[C@@H](Cc2cc(F)ccc2S(=O)(=O)Nc2ccc3c(c2C(=O)O)OC[C@@H]2C[C@H]32)C1 (mixture of isomers) [(1aRS,7bSR)-5-[2-((R)-1-Ethylpyrrolidin-3-ylmethyl)-4-fluorobenzenesulfonyl-amino]-1,1a,2,7b-tetrahydro-cyclopropa[c]chromene-4-carboxylic acid]",< 0.05
4,"CCN1CC[C@H](Cc2cc(F)ccc2S(=O)(=O)Nc2ccc3c(c2C(=O)O)OC[C@@H]2C[C@H]32)C1 (mixture of isomers) [(1aRS,7bSR)-5-[2-((S)-1-Ethyl-pyrrolidin-3-ylmethyl)-4-fluorobenzenesulfonyl-amino]-1,1a,2,7b-tetrahydrocyclopropa[c]chromene-4-carboxylic acid]",0.05 to 0.5
5,"CCN1CCC[C@@H]1CCNc1ccccc1S(=O)(=O)Nc1ccc2c(c1C(=O)O)OC[C@@H]1C[C@H]21 (mixture of isomers) [(1aRS,7bSR)-5-{2-[2-((R)-1-Ethylpyrrolidin-2-yl)ethylamino]-benzenesulfonyl-amino}-1,1a,2,7b-tetrahydrocyclopropa-[c]chromene-4-carboxylic acid]",< 0.05
6,"CCN1CC[C@@H](CCNc2ccccc2S(=O)(=O)Nc2ccc3c(c2C(=O)O)OC[C@@H]2C[C@H]32)C1 (mixture of isomers) [(1aRS,7bSR)-5-{2-[2-((R)-1-Ethylpyrrolidin-3-yl)ethylamino]-benzenesulfonylamino}-1,1a,2,7b-tetrahydrocyclopropa-[c]chromene-4-carboxylic acid]",0.05 to 0.5
7,"CCN1CCC[C@@H]1C(=O)N(C)Cc1cc(F)ccc1S(=O)(=O)Nc1ccc2c(c1C(=O)O)OCC1CC21 (mixture of isomers) [(1aRS,7bSR)-5-(2-{N-[((R)-1-Ethylpyrrolidine-2-yl)carbonyl]-N-methylaminomethyl}-4-fluorobenzenesulfonylamino)-1,1a,2,7b-tetrahydrocyclopropa[c]chromene-4-carboxylic acid]",0.05 to 0.5
8,"CCN1CC[C@H](C(=O)NCc2cc(F)ccc2S(=O)(=O)Nc2ccc3c(c2C(=O)O)OCC2CC32)C1 (mixture of isomers) [(1aRS,7bSR)-5-(2-{[((S)-1-ethylpyrrolidine-3-carbonyl)amino]methyl}-4-fluoro-benzenesulfonylamino)-1,1a,2,7b-tetrahydrocyclopropa[c]chromene-4-carboxylic acid]",0.05 to 0.5
9,"CCNC/C=C\c1cc(F)ccc1S(=O)(=O)Nc1ccc2c(c1C(=O)O)OC[C@@H]1C[C@H]21 (racemic) [(1aRS,7bSR)-5-[2((Z)-3-Ethylaminoprop-1-enyl)-4-fluoro-benzenesulfonylamino]-1,1a,2,7b-tetrahydrocyclopropa-[c]chromene-4-carboxylic acid]",< 0.05
10,"CCN1CC(c2cc(F)ccc2S(=O)(=O)Nc2ccc3c(c2C(=O)O)OC[C@@H]2C[C@H]32)C1 (racemic) [(1aRS,7bSR)-5-[2-(1-Ethylazetidin-3-yl)-4-fluorobenzene-sulfonylamino]-1,1a,2,7b-tetrahydro-cyclopropa[c]chromene-4-carboxylic acid]",0.05 to 0.5
11,"CCN1CCC(Cc2cc(F)ccc2S(=O)(=O)Nc2ccc3c(c2C(=O)O)OC[C@@H]2C[C@H]32)CC1 (racemic) [(1aRS,7bSR)-5-[2-(1-Ethylpiperidin-4-ylmethyl)-4-fluoro-benzenesulfonylamino]-1,1a,2,7b-tetrahydrocyclopropa-[c]chromene-4-carboxylic acid]",< 0.05
12,"CN(C)CCCNc1ccccc1S(=O)(=O)Nc1ccc2c(c1C(=O)O)OC[C@@H]1C[C@H]21 (racemic) [(1aRS,7bSR)-5-[2-(3-Dimethylaminopropylamino)benzene-sulfonylamino]-1,1a,2,7b-tetrahydrocyclopropa[c]chromene-4-carboxylic acid]",< 0.05
13,"CN(C)CCCNC(=O)c1ccccc1S(=O)(=O)Nc1ccc2c(c1C(=O)O)OC[C@@H]1C[C@H]21 (racemic) [(1aRS,7bSR)-5-[2-(3-Dimethylaminopropylcarbamoyl)benzene-sulfonylamino]-1,1a,2,7b-tetrahydrocyclopropa[c]chromene-4-carboxylic acid]",0.05 to 0.5
14,"CN(C)CCCCNc1cc(F)ccc1S(=O)(=O)Nc1ccc2c(c1C(=O)O)OC[C@@H]1C[C@H]21 (racemic) [(1aRS,7bSR)-5-[2-(4-Dimethylaminobutylamino)-4-fluoro-benzenesulfonyl-amino]-1,1a,2,7b-tetrahydrocyclopropa-[c]chromene-4-carboxylic acid]",0.05 to 0.5
15,"CN(C)CCCCNc1ccccc1S(=O)(=O)Nc1ccc2c(c1C(=O)O)OC[C@@H]1C[C@H]21 (racemic) [(1aRS,7bSR)-5-[2-(4-Dimethylaminobutylamino)benzene-sulfonylamino]-1,1a,2,7b-tetrahydrocyclopropa[c]chromene-4-carboxylic acid]",< 0.05
16,"CN(C)CCCC(=O)Nc1cc(F)ccc1S(=O)(=O)Nc1ccc2c(c1C(=O)O)OC[C@@H]1C[C@H]21 (racemic) [(1aRS,7bSR)-5-[2-(4-Dimethylaminobutyrylamino)-4-fluorobenzenesulfonyl-amino]-1,1a,2,7b-tetrahydrocyclopropa-[c]chromene-4-carboxylic acid]",0.05 to 0.5

# Results, then the compound that gave them:
row,IC50 [µM],Structure (SMILES)
1,0.05 to 0.5,"CCN1CC[C@@H](NCCc2cc(F)ccc2S(=O)(=O)Nc2ccc3c(c2C(=O)O)OC[C@@H]2C[C@H]32)C1 (mixture of isomers) [(1aRS,7bSR)-5-{2-[2-((R)-1-Ethylpyrrolidin-3-ylamino)ethyl]-4-fluoro-benzenesulfonylamino}-1,1a,2,7b-tetrahydrocyclopropa-[c]chromene-4-carboxylic acid]"
2,< 0.05,"CCN1CCC[C@H]1CCNc1ccccc1S(=O)(=O)Nc1ccc2c(c1C(=O)O)OC[C@@H]1C[C@H]21 (mixture of isomers) [(1aRS,7bSR)-5-{2-[2-((S)-1-Ethylpyrrolidin-2-yl)ethylamino]-benzenesulfonyl-amino}-1,1a,2,7b-tetrahydrocyclopropa-[c]chromene-4-carboxylic acid]"
3,0.05 to 0.5,"CCN1CC[C@H](CCNc2ccccc2S(=O)(=O)Nc2ccc3c(c2C(=O)O)OC[C@@H]2C[C@H]32)C1 (mixture of isomers) [(1aRS,7bSR)-5-{2-[2-((S)-1-Ethylpyrrolidin-3-yl)ethylamino]-benzenesulfonyl-amino}-1,1a,2,7b-tetrahydrocyclopropa-[c]chromene-4-carboxylic acid]"
4,0.05 to 0.5,"CCN1CC[C@@H](Nc2ccccc2S(=O)(=O)Nc2ccc3c(c2C(=O)O)OC[C@@H]2C[C@H]32)C1 (mixture of isomers) [(1aRS,7bSR)-5-{2-[((R)-1-Ethylpyrrolidin-3-yl)amino]-benzenesulfonylamino}-1,1a,2,7b-tetrahydrocyclopropa-[c]chromene-4-carboxylic acid]"
5,0.05 to 0.5,"CCN1CC[C@H](CNc2ccccc2S(=O)(=O)Nc2ccc3c(c2C(=O)O)OC[C@@H]2C[C@H]32)C1 (mixture of isomers) [(1aRS,7bSR)-5-{2-[((R)-1-Ethylpyrrolidin-3-ylmethyl)amino]-benzenesulfonylamino}-1,1a,2,7b-tetrahydrocyclopropa-[c]chromene-4-carboxylic acid]"
6,< 0.05,"CCN1CCCC1C(=O)NCc1cc(F)ccc1S(=O)(=O)Nc1ccc2c(c1C(=O)O)OCC1CC21 (mixture of isomers) [(1aRS,7bSR)-5-{2-[((S)-1-Ethylpyrrolidin-2-yl)cabonyl-aminomethyl]-4-fluorobenzenesulfonylamino}-1,1a,2,7b-tetrahydrocyclopropa[c]chromene-4-carboxylic acid]"
7,0.05 to 0.5,"CCN1CC[C@H](Nc2ccccc2S(=O)(=O)Nc2ccc3c(c2C(=O)O)OC[C@@H]2C[C@H]32)C1 (mixture of isomers) [(1aRS,7bSR)-5-{2-[((S)-1-Ethylpyrrolidin-3-yl)amino]-benzenesulfonylamino}-1,1a,2,7b-tetrahydrocyclopropa-[c]chromene-4-carboxylic acid]"
8,0.05 to 0.5,"CCN1CC[C@H](NC(=O)Cc2cc(F)ccc2S(=O)(=O)Nc2ccc3c(c2C(=O)O)OC[C@@H]2C[C@H]32)C1 (mixture of isomers) [(1aRS,7bSR)-5-{2-[((S)-1-Ethylpyrrolidin-3-ylcarbamoyl)-methyl]-4-fluoro-benzenesulfonyl-amino}-1,1a,2,7b-tetrahydrocyclopropa-[c]chromene-4-carboxylic acid]"
9,0.05 to 0.5,"CCN1CC[C@@H](CNc2ccccc2S(=O)(=O)Nc2ccc3c(c2C(=O)O)OC[C@@H]2C[C@H]32)C1 (mixture of isomers) [(1aRS,7bSR)-5-{2-[((S)-1-Ethylpyrrolidin-3-ylmethyl)amino]-benzenesulfonylamino}-1,1a,2,7b-tetrahydrocyclopropa-[c]chromene-4-carboxylic acid]"
